Results from EP1746104B1, “NOVEL SOLUBLE CD14 ANTIGEN” (MOCHIDA PHARMACEUTICAL CO., LTD., priority 2004, dated 2005).
Ends that are not written are not given here.

Tests used:
S68 antibody = experiment: Peptide blocking of S68 antibody binding to serum protein (specificity of S68 antibody); set-up: species or system rabbit; conditions: peptide 0, 0.1, 1, and 10 µg/mL; sera of sepsis patients and normal donors
Description: For confirming the specificity of S68 antibody prepared in Example 1, the inventors studied whether blocking occurs by a peptide by the same assay as that of Example 3-(3). That is, S68 peptide (amino acid sequence at positions 53 to 68), synthetic polypeptide prepared by the same way as that of Example 1 (amino acid sequence at positions 53 to 58, amino acid sequence at positions 57 to 62, and amino acid sequence at positions 59 to 64), or negative control peptide (Cys Glu Gly Asn Gly Asn Asn Phe Glu Ser Arg Glu Ala Cys) was diluted to 0, 0.1, 1, and 10 µg/mL and 25 µL of each diluted solution was added to 25 µL of each of 50-fold diluted solutions of the sera obtained from patients suffering from sepsis and the sera of normal donors to initiate a competitive reaction by mixing with S68 antibody. After that, the levels of the soluble protein bound to S68 antibody without inhibition by any peptide were determined.
The above result confirmed that a protein being detected in blood by S68 antibody is specifically recognized by S68 antibody. In addition, the result also confirmed that the sequence recognized by the antibody requires a length of at least 7 amino acids because the inhibition can not be attained by three kinds of synthetic peptides (the number of amino acids: 6) corresponding to the partial peptides of S68 peptide.

[1] = Measurement of chemically synthesized peptide with kit of Example 7-(3); assay type: binding
Description: A peptide synthesizer ABI433A (Applied) was used and amino acid columns were then aligned according to the amino acid sequences to carry out automatic synthesis. The synthesized peptide was removed from a resin by the conventional method and then recovered by ether precipitation. The resultant peptide was re-dissolved in distilled water and then freeze-dried. After the dissolution, the crude peptide thus obtained was eluted through a linear gradient of 5-70% acetonitrile by the use of C18 reversed phase HPLC (CAPCELL-PAK, Shiseido Co., Ltd.). Consequently, a fraction containing a peptide of interest was collected. The collected fraction was freeze-dried and provided as a purified peptide. The purified peptide was dissolved in the diluent described in Example 7-(12) and then the solution was subjected to the measurement with the kit described in Example 7-(3).

For “S68 peptide: peptide having the sequence of SEQ ID NO: 2, positions 53 to 68 of SEQ ID NO: 3 (RVDADADPRQYADTVK)”, the “inhibition of the binding between S68 antibody and the soluble protein in serum” value (S68 antibody) was “inhibited”.

In the case of “CEGNGNNFESREAC (cysteine pairing not given here) [negative control peptide, reference compound]”, the “inhibition of the binding between S68 antibody and the soluble protein in serum” value (S68 antibody) is reported as “not inhibited”.

B1: sCD14(1-70): chemically synthesized soluble polypeptide having amino acids at positions 1 to 70 on the N-terminal of human CD14 (peptide)
peptide: TTPEPCELDDEDFRCVCNFSEPQPDWSEAFQCVSAVEVEIHAGGLNLEPFLKRVDADADPRQYADTVKAL
With B1 the “reaction with the kit described in Example 7-(3)” value [1] was “strongly reacted”.
